We go through four molecules from ChEMBL document CHEMBL1201862, “PubChem BioAssay data set” (2004).

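How tested: cells in 96-well plates exposed to compound for 48 hours at five concentrations. The concentration for 50% growth inhibition is given as GI50.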 Calls of active or inactive are those of the source. Cut-off read from the data, not from the text of the source: active = GI50 up to about 1.1 µM and inactive = higher.

Holding throughout (experiment): NCI-60 cell line screen, 48 h
The test system of assay [1] is 786-0.
The test system of assay [2] is A549.
For assay [3], the system named is COLO 205.
The test system of assay [4] is EKVX.
In assay [5] the test system is HT-29.
Assay [6] has as its system IGROV-1.
Assay [7] relates to K562.
The test system of assay [8] is MCF7.
Assay [9] concerns MDA-MB-435.
Assay [10] has as its system Malme-3M.
Assay [11] relates to NCI-H226.
Assay [12] concerns NCI-H23.
Assay [13] concerns NCI-H460.
The test system of assay [14] is NCI/ADR-RES.
Assay [15] relates to OVCAR-3.
The test system of assay [16] is SK-MEL-28.
Assay [17] relates to SN12C.
The subject of assay [18] is T47D.
For assay [19], the system named is UACC-257.
The test system of assay [20] is UO-31.

Take `C[C@H](CCC(=O)NCCS(=O)(=O)O)[C@H]1CC[C@H]2[C@@H]3[C@H](O)C[C@@H]4C[C@H](O)CC[C@]4(C)[C@H]3CC[C@]12C`: the GI50 in [1], in assay [2], in assay [3], in assay [4], in [5] and in assay [6] was > 100 µM (inactive) each time. Besides, the GI50 in [7], in assay [8], in assay [9], in [10], in assay [11] and in [12] was > 100 µM (inactive) each time. In addition, the GI50 was > 100 µM (inactive) in assay [13]; 45.9 µM (inactive) in assay [14]; > 100 µM (inactive) in assay [15]; > 100 µM (inactive) in [16]; > 100 µM (inactive) in assay [17]; > 100 µM (inactive) in assay [18]. Further, the GI50 in assay [19] and in assay [20] was > 100 µM (inactive) in each case.

Regarding `C/C(Cl)=N/OC(=O)Nc1ccc(S(N)(=O)=O)c(C)c1`, the GI50 in [1] is 2.03 µM (inactive); in [2], 17.5 µM (inactive); in [3], 2.17 µM (inactive); in assay [4] it was 5.75 µM (inactive); in [5] it was 17.8 µM (inactive); in assay [6], 15.4 µM (inactive). In addition, the GI50 is 1.34 µM (inactive) in assay [7]; 5.38 µM (inactive) in [8]; 15.1 µM (inactive) in assay [9]; 2.08 µM (inactive) in [10]; 23.6 µM (inactive) in assay [11]; 18.1 µM (inactive) in assay [12]. Besides, the GI50 in assay [13] was 39.9 µM (inactive); in [14], 14.1 µM (inactive); in assay [15], 4.46 µM (inactive); in assay [16] it was 13.6 µM (inactive); in [17], 13.4 µM (inactive); in [18], 2.92 µM (inactive). The GI50 in assay [19] is 14.7 µM (inactive); in [20], 14.9 µM (inactive).

For `Cc1ccc(/C=C2\CCCC(CN3CCCCC3)C2=O)cc1` (stereo not given), the GI50 is 2.02 µM (inactive) in assay [1]; 17.7 µM (inactive) in [2]; 1.82 µM (inactive) in assay [3]; 17.6 µM (inactive) in assay [4]; 1.77 µM (inactive) in assay [5]; 1.96 µM (inactive) in [6]. The GI50 in [7] was 1.57 µM (inactive); in assay [8], 0.721 µM (active); in [9] it was 1.82 µM (inactive); in [10], 2.51 µM (inactive); in assay [11], 2.29 µM (inactive); in assay [12], 2.17 µM (inactive). For the same molecule, the GI50 in assay [13] was 3.89 µM (inactive); in assay [14] it was 5.38 µM (inactive); in assay [15] it was 1.87 µM (inactive); in assay [16], 1.63 µM (inactive); in assay [17], 2.96 µM (inactive); in assay [18], 1.82 µM (inactive). In addition, the GI50 in assay [19] is 1.93 µM (inactive); in [20], 1.84 µM (inactive).

Consider `COc1nc(N)nc2c1ncn2C1CC(O)C(CO)O1` (stereo not given), for which the GI50 in assay [1], in [2], in assay [3], in [4], in assay [5] and in assay [6] was > 100 µM (inactive) each time. The GI50 in assay [7], in assay [8], in [9], in assay [10], in [11] and in [12] was > 100 µM (inactive) throughout. Besides, the GI50 in [13], in assay [14], in [15], in assay [16], in assay [17] and in assay [18] was > 100 µM (inactive) each time. Besides, the GI50 in assay [19] and in [20] was > 100 µM (inactive) in each case.
